System: 624824-186-R-J3-PDC multicell spheroids, viability
Assay: Anticancer human tumor 624824-186-R-J3-PDC patient-derived colon adenocarcinoma cell line growth inhibition [PI3K]
Conditions: for IC50: curve of first compound; for viability, T/C: stronger effect = lower value; active means viability on the fitted dose curve at most 10% of control; inactive means the rest
In short: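 Stroma-containing spheroids: tumor line, pooled-donor HUVEC, hMSC. Treatments: targeted agents with PI3K inhibitors. Dosing: clinically relevant, half-log spacing, 10 microM ceiling without known Cmax. Read-out: cell viability.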
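Further: spheroids exposed to agents for seven days before luminescence read.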
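Wherever viability, T/C is given: luminescent signal used as a stand-in for spheroid viability; percent viability relative to DMSO vehicle control wells taken as 100%.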

CC(C)NCC(C(=O)N1CCN(c2ncnc3c2C(C)CC3O)CC1)c1ccc(Cl)cc1 (configuration not stated) + CC(Nc1ncnc2nc[nH]c12)c1cc2cccc(Cl)c2c(=O)n1-c1ccccc1
> 10 µM: IC50 (second compound 0.0316 µM) | IC50 (second compound 0.1 µM) | IC50 (second compound 0.316 µM) | IC50 (second compound 1 µM)
8.04 µM: IC50 (second compound 10 µM)
6.42 µM: IC50 (second compound 3.16 µM)
inactive: viability, T/C (second compound 0.0316 µM, first compound 0.0316 µM) 124% | viability, T/C (second compound 0.0316 µM, first compound 0.1 µM) 99% | viability, T/C (second compound 0.0316 µM, first compound 0.316 µM) 94.2% | viability, T/C (second compound 0.0316 µM, first compound 1 µM) 80.5% | viability, T/C (second compound 0.0316 µM, first compound 3.16 µM) 72.5% | viability, T/C (second compound 0.0316 µM, first compound 10 µM) 52.4% | viability, T/C (second compound 0.1 µM, first compound 0.0316 µM) 108% | viability, T/C (second compound 0.1 µM, first compound 0.1 µM) 89.1% | viability, T/C (second compound 0.1 µM, first compound 0.316 µM) 95.5% | viability, T/C (second compound 0.1 µM, first compound 1 µM) 81.2% | viability, T/C (second compound 0.1 µM, first compound 3.16 µM) 59.9% | viability, T/C (second compound 0.1 µM, first compound 10 µM) 56.2% | viability, T/C (second compound 0.316 µM, first compound 0.0316 µM) 103% | viability, T/C (second compound 0.316 µM, first compound 0.1 µM) 103% | viability, T/C (second compound 0.316 µM, first compound 0.316 µM) 106% | viability, T/C (second compound 0.316 µM, first compound 1 µM) 79.2% | viability, T/C (second compound 0.316 µM, first compound 3.16 µM) 59.8% | viability, T/C (second compound 0.316 µM, first compound 10 µM) 54.2% | viability, T/C (second compound 1 µM, first compound 0.0316 µM) 104% | viability, T/C (second compound 1 µM, first compound 0.1 µM) 110% | viability, T/C (second compound 1 µM, first compound 0.316 µM) 115% | viability, T/C (second compound 1 µM, first compound 1 µM) 74.7% | viability, T/C (second compound 1 µM, first compound 3.16 µM) 62.8% | viability, T/C (second compound 1 µM, first compound 10 µM) 45.8% | viability, T/C (second compound 3.16 µM, first compound 0.0316 µM) 93% | viability, T/C (second compound 3.16 µM, first compound 0.1 µM) 89.7% | viability, T/C (second compound 3.16 µM, first compound 0.316 µM) 89.5% | viability, T/C (second compound 3.16 µM, first compound 1 µM) 71.6% | viability, T/C (second compound 3.16 µM, first compound 3.16 µM) 57.4% | viability, T/C (second compound 3.16 µM, first compound 10 µM) 45.7% | viability, T/C (second compound 10 µM, first compound 0.0316 µM) 98.2% | viability, T/C (second compound 10 µM, first compound 0.1 µM) 89.5% | viability, T/C (second compound 10 µM, first compound 0.316 µM) 80% | viability, T/C (second compound 10 µM, first compound 1 µM) 72% | viability, T/C (second compound 10 µM, first compound 3.16 µM) 56% | viability, T/C (second compound 10 µM, first compound 10 µM) 48.7%

— PubChem BioAssay AID1963977 (Molecular Pharmacology Branch, DTP, NCI, 2024)
